Experimental data as given in ChEMBL document CHEMBL1671624, “Efficacy of quinoxaline-2-carboxylate 1,4-di-N-oxide derivatives in experimental tuberculosis” (Antimicrob Agents Chemother, 2008).
≈ marks a conversion by molar mass, not a printed value.

Tests used:
Format in all cases: functional
Details in all cases: variant bovis BCG
[1] = test system: Mycobacterium tuberculosis; experiment: Antibacterial activity against Mycobacterium bovis BCG harboring moaD gene by microplate Alamar Blue assay
[2] = test system: Mycobacterium tuberculosis; experiment: Antibacterial activity against wild-type Mycobacterium bovis BCG by microplate Alamar Blue assay
[3] = test system: Mycobacterium tuberculosis; experiment: Antibacterial activity against Mycobacterium bovis BCG harboring moaA gene by microplate Alamar Blue assay
[4] = test system: Mycobacterium tuberculosis; experiment: Antibacterial activity against Mycobacterium bovis BCG harboring fgd gene by microplate Alamar Blue assay
[5] = test system: Mycobacterium tuberculosis; experiment: Antibacterial activity against Mycobacterium bovis BCG harboring fbiC gene by microplate Alamar Blue assay
[6] = test system: Mycobacterium tuberculosis; experiment: Antibacterial activity against Mycobacterium bovis BCG harboring pil8 gene by microplate Alamar Blue assay

Row | SMILES | MIC [1] [µM] | MIC [2] [µM] | MIC [3] [µM] | MIC [4] [µM] | MIC [5] [µM] | MIC [6] [µM]
1 | CCOC(=O)c1c(C)[n+]([O-])c2ccc(Cl)cc2[n+]1[O-] | 0.55 (≈ 0.155 µg/mL) | 0.5 (≈ 0.141 µg/mL) | 0.38 (≈ 0.107 µg/mL) | 0.5 (≈ 0.141 µg/mL) | 0.71 (≈ 0.201 µg/mL) | 0.72 (≈ 0.204 µg/mL)
2 | O=C(Nc1ccc([N+](=O)[O-])cc1Cl)c1cc(Cl)ccc1O [NICLOSAMIDE] | 1.9 (≈ 0.622 µg/mL) | 3.13 (≈ 1.02 µg/mL) | 1.86 (≈ 0.608 µg/mL) | 1.61 (≈ 0.527 µg/mL) | 1.57 (≈ 0.514 µg/mL) | 1.87 (≈ 0.612 µg/mL)
3 | O=[N+]([O-])c1cn2c(n1)OC[C@@H](OCc1ccc(OC(F)(F)F)cc1)C2 [PRETOMANID] | > 128 | 0.12 (≈ 0.0431 µg/mL) | > 128 | > 128 | > 128 | > 128
